The subject of test [1] is Rattus norvegicus. Put plainly: Compound was tested for mean arterial pressure in the spontaneously hypertensive rat, activity expressed as mean arterial pressure before peroral administration of 0.17 mg/Kg dose. In kind it is functional, Artery.
Test [2] concerns Rattus norvegicus. Put plainly: Compound was tested for mean arterial pressure in the spontaneously hypertensive rat, activity expressed as maximum % change in pressure after 3 hours of oral administration of 1.5 mg/Kg. In kind it is functional, Artery.

Each structure is given as a SMILES string.

Regarding `CC1(C)Oc2ccc(OC(F)(F)F)cc2[C@@H](NC(=O)c2ccco2)[C@@H]1O`, the “Mean arterial blood pressure” value in the test on Rattus norvegicus [1] came out at 175 mmHg. The Change in the test on Rattus norvegicus [2] was -30%.
In the same order, the values of `CC1(C)c2ccc(C#N)cc2[C@@H](NC(=O)c2ccco2)[C@@H]1O` are 182 mmHg and -35%.
In the case of `CC1(C)Oc2ccc(C#N)cc2[C@@H](N2Cc3ccccc3C2=O)[C@@H]1O`, the “Mean arterial blood pressure” value with Rattus norvegicus [1] was determined as 173 mmHg. Also, the Change in the test with Rattus norvegicus [2] was -23%.
On to `CC1(C)Oc2ccccc2[C@@H](N2Cc3ccccc3C2=O)[C@@H]1O`, for which the “Mean arterial blood pressure” value in the test on Rattus norvegicus [1] came out at 184 mmHg. For the same molecule, the Change in the test with Rattus norvegicus [2] is reported as -26%.
For `CC1(C)Oc2ccc(OC(F)(F)F)cc2[C@@H](N2Cc3ccccc3C2=O)[C@@H]1O` [CELIKALIM] the same measures were 180 mmHg and -28%.
As to `CC1(C)Oc2ccc(C#N)cc2[C@@H](N2CCCC2=O)[C@@H]1O` [CROMAKALIM], the “Mean arterial blood pressure” value in the test on Rattus norvegicus [1] is 171 mmHg. In addition, in the test on Rattus norvegicus [2], the Change is -28%.

Source of the values: ChEMBL document CHEMBL1125958, “Antihypertensive benzopyran-related potassium channel activators: a role for lipophilicity” (Bioorg Med Chem Lett, 1991).
